From patent publication US20120071544A1, “Methods For Identifying Compounds Effective To Increase The Expression Or Activity Of Aspartyl Aminopeptidase In Mammalian Pancreatic Islet Cells, And Methods For Decreasing Angiotensin II Levels In Mammalian Pancreatic Islet Cells” (priority 2010, published 2012)

Tests used:
[1] = test system: DAP; experiment: DAP protein level in transfected MIN6 cells by Western blot; format: cell-based, mouse; conditions: 48 hours culture, Western blots
Experimental: (§1) The DAP gene was either knocked down with DAP RNAi construct or overexpressed by transient transfection of DAP-pCMV in MIN6 cells.
(§2) The full-length DAP construct or the control vector was transfected into MIN6 cells. After culturing for 48 hours, MIN6 cells and the culture media were harvested for measurement of DAP and Ang II levels. Higher expression level of DAP (2.1-fold±0.6) in DAP-pCMV-transfected MIN6 cells compared to that in the vector-transfected cells was detected by Western blots. Ang II levels in MIN6 cell lysates and the cultured media were measured after the transfection and compared to the control transfected cells. Ang II-specific ELISA kit (Cayman Chemical) was used for the measurements.
(§3) The cells were transfected with […] of Dnpep siRNA of SEQ ID NO. 13, non-silencing control siRNA, or a full-length of Dnpep cDNA (SEQ ID NO. 12) in pCMV-SPORT6 (Open Biosystems, Huntsville, Ala.) by electroporation (BioRad Laboratories, Berkeley, Calif.). A total of 1×10^5 of the cells was seeded into 6-well culture plates coated with poly-L-lysine and cultured for 24 h. The transfection efficiency was approximately 50 percent according to a co-transfected GFP marker.
After 48 hours culture, cells and culture media were collected. […]

[2] = test system: DAP mRNA; experiment: DAP mRNA level in transfected MIN6 cells by RT-PCR; format: cell-based, mouse; conditions: 48 hours culture
Experimental: It was also investigated whether endogenous DAP levels affect the Ang II levels. Dnpep siRNA and control siRNA were purchased (Qiagen, Germantown, Md.). The target sequences were nucleotides 328-348 (SEQ ID NO. 11:
[…]) of mouse Dnpep cDNA (GenBank NM_001110831; SEQ ID NO. 12). MIN6 cells were maintained in DMEM, supplemented with 10% FCS, 10 mM glucose, 2 mmol/l glutamine, 100 U/ml penicillin, and 0.1 mg/ml streptomycin.
as §3
(§4) After 48 hours culture, cells and culture media were collected. Real-time PCR (RT-PCR) was conducted with the primers (Assay ID Details: Mm00497488_m1*) and the 7900HT Fast Real-Time PCR System (Applied Biosystems, Foster City, Calif.). Western blots were performed using the ECL Reagents (GE, Piscataway, N.J.).

[3] = test system: Ang II levels in MIN6 cells; experiment: Ang II levels in MIN6 cell lysates and cultured media by Ang II ELISA; format: cell-based, mouse
Experimental: as §1, §2, §3, §4
Ang II levels were measured using the AssayMax Ang II ELISA Kit (Cayman Chemical, Ann Arbor, Mich.). Briefly, standards or samples were incubated in a 96-well plate with biotinylated anti-Ang II antibody for 2 h. After the washings, Streptavidin-Peroxidase Conjugate was added for 30 min. The final reaction was developed with the substrate chromogen and read at 450 nm by an ELISA reader. Ang II levels in the samples were calculated from an Ang II standard curve run with each assay. Values (mean±SEM) are from at least three independent experiments. ANOVA with Tukey's post hoc test was used for statistical analysis.

[4] = target: Angiotensin II (1-8); experiment: cell-based or functional assay

Row | extracellular Ang II level in DAP RNAi-transfected MIN6 cells against control cells (Ang II ELISA) (percent increase) [4] | extracellular Ang II level in DAP-transfected MIN6 cells against control cells (Ang II ELISA) (percent lower) [4] | intracellular Ang II level in DAP RNAi-transfected MIN6 cells against control cells (Ang II ELISA) (percent increase) [4] | intracellular Ang II level in DAP-transfected MIN6 cells against vector-treated cells (Ang II ELISA) (percent lower) [4] | Substance | DAP protein level decrease compared to control cells [1] [%] | Endogenous DAP mRNA level knocked down [2] [%] | Intracellular Ang II levels ([3]; MIN6 cell lysates, 48 hours after transfection, mean±SEM) [pg/mg protein] | Intracellular Ang II levels, increase compared to control cells ([3]; MIN6 cell lysates, 48 hours culture) | Extracellular Ang II levels, increase compared to control cells ([3]; MIN6 culture media, 48 hours culture) [%] | Extracellular Ang II levels ([3]; MIN6 cultured media, 48 hours after transfection, mean±SEM) [pg/mg protein]
1 | – | – | – | – | DAP RNAi: Dnpep siRNA (Qiagen, SEQ ID NO. 13) targeting nucleotides 328-348 of mouse Dnpep cDNA (AATGTGGCCTGGATGGCCTCT; listed as DNA, chemistry not given here; the letters are possibly those of the target site; listed as Mus musculus) | 70 | 78 | 50±6 | up to 74% | 57 | 52±5.3
2 | 57 | 35 | 74 | 28 | aspartyl aminopeptidase (DAP), mouse, gene product of Dnpep (from UniProt Q9Z2W0 1-473) (enzyme) | – | – | – | – | – | –
